Our source for the IC50 values is US8008291B2 (Mimetica Pty Ltd, priority 2008, dated 2011).

The structures appear in SMILES notation.

A word on the IC50: it is the midpoint of a concentration-inhibition curve.

This assay deals with T1, human MC5R (hMC5R) (Homo sapiens, UniProt P33032).
T1 construct: purchased Perkin Elmer RBXMC5M400UA
T1 sequence (P33032 whole entry): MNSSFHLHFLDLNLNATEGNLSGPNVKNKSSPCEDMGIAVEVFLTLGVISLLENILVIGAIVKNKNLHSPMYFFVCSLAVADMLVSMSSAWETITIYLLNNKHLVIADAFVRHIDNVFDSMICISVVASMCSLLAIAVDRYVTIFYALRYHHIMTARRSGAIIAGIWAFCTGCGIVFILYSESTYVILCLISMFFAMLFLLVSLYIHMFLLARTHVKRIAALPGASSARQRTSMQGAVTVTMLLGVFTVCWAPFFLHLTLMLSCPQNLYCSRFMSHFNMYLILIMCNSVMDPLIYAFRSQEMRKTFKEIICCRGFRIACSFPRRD
Nature of the assay: Human MC5R radioligand binding assay (membranes, [125I] NDP-MSH displacement). Conditions: hMC5R binding; tested as trifluoroacetate or hydrochloride salts, or free bases; read-out: MC5R radioligand IC50. Put shortly: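 Frozen human MC5R membranes incubated with test compound and in-house iodogen-labeled, HPLC-purified [125I]NDP-MSH for 1 hr at 37° C. Binding measured as displacement of the radioligand.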
Take `CC[C@H](CN1CC[C@@H](CNC(=O)c2ccc3cc(Cl)ccc3c2)N[C@@H](CN2CCCCC2)C1=O)c1ccccc1` [Compound 415, 6-chloro-N-(((3S,5S)-2-oxo-1-((S)-2-phenylbutyl)-3-(piperidin-1-ylmethyl)-1,4-diazepan-5-yl)methyl)-2-naphthamide]: the IC50 was less than 100 nM.
Then `CC[C@H](CN1CC[C@@H](CNC(=O)c2ccc(Cl)c(Cl)c2)N[C@@H](CN2CCCCC2)C1=O)c1ccccc1` [Compound 416, 3,4-dichloro-N-(((3S,5S)-2-oxo-1-((S)-2-phenylbutyl)-3-(piperidin-1-ylmethyl)-1,4-diazepan-5-yl)methyl)benzamide], with less than 1000 nM; and `CC[C@H](CN1CC[C@@H](CNC(=O)c2ccc3cc(Cl)ccc3c2)N[C@@H](CCCN2CCCCC2)C1=O)c1ccccc1` [Compound 417, 6-chloro-N-(((3S,5S)-2-oxo-1-((S)-2-phenylbutyl)-3-(3-(piperidin-1-yl)propyl)-1,4-diazepan-5-yl)methyl)-2-naphthamide], with less than 100 nM.
In the case of `CC[C@H](CN1CC[C@@H](CNC(=O)c2ccc(Cl)c(Cl)c2)N[C@@H](CCCN2CCCCC2)C1=O)c1ccccc1` [Compound 418, 3,4-dichloro-N-(((3S,5S)-2-oxo-1-((S)-2-phenylbutyl)-3-(3-(piperidin-1-yl)propyl)-1,4-diazepan-5-yl)methyl)benzamide] it was less than 100 nM; in that of `CC(C)(NC(=O)/C=C/c1ccc(Cl)cc1)[C@@H]1CCN(CC(c2ccccc2)c2ccccc2)C(=O)[C@H](CCN)N1` [Compound 419, (E)-N-(2-((3S,5S)-3-(2-aminoethyl)-1-(2,2-diphenylethyl)-2-oxo-1,4-diazepan-5-yl)propan-2-yl)-3-(4-chlorophenyl)acrylamide], less than 1000 nM; in that of `CC(C)(NC(=O)/C=C/c1ccc(Cl)cc1)[C@@H]1CCN(CC(c2ccccc2)c2ccccc2)C(=O)[C@H](CCN2CCCCC2)N1` [Compound 420, (E)-3-(4-chlorophenyl)-N-(2-((3S,5S)-1-(2,2-diphenylethyl)-2-oxo-3-(2-(piperidin-1-yl)ethyl)-1,4-diazepan-5-yl)propan-2-yl)acrylamide], less than 1000 nM.
`C[C@@H](CN1CC[C@@H](CNC(=O)c2ccc3ccccc3c2)N[C@@H](CCN)C1=O)c1ccc(Cl)cc1` [Compound 421, N-(((3S,5S)-3-(2-aminoethyl)-1-((R)-2-(4-chlorophenyl)propyl)-2-oxo-1,4-diazepan-5-yl)methyl)-2-naphthamide]: the IC50 was less than 10000 nM.
Then `CC(CN1CC[C@@H](CNC(=O)c2ccc3ccccc3c2)N[C@@H](CCN)C1=O)c1ccc(Cl)cc1` (stereo partly drawn) [Compound 422, N-(((3S,5S)-3-(2-aminoethyl)-1-(2-(4-chlorophenyl)propyl)-2-oxo-1,4-diazepan-5-yl)methyl)-2-naphthamide], with less than 10000 nM.
Then `C[C@@H](CN1CC[C@@H](CNC(=O)c2ccc3ccccc3c2)N[C@@H](CCN2CCCCC2)C1=O)c1ccc(Cl)cc1` [Compound 423, N-(((3S,5S)-1-((R)-2-(4-chlorophenyl)propyl)-2-oxo-3-(2-(piperidin-1-yl)ethyl)-1,4-diazepan-5-yl)methyl)-2-naphthamide], with less than 10000 nM.
On to `C[C@H](CN1CC[C@@H](CNC(=O)c2ccc3ccccc3c2)N[C@@H](CCN2CCCCC2)C1=O)c1ccc(Cl)cc1` [Compound 424, N-(((3S,5S)-1-((S)-2-(4-chlorophenyl)propyl)-2-oxo-3-(2-(piperidin-1-yl)ethyl)-1,4-diazepan-5-yl)methyl)-2-naphthamide], for which the IC50 is less than 1000 nM.
For the molecule `CC[C@H](CN1CC[C@@H](CNC(=O)c2ccc(Cl)c(Cl)c2)N[C@@H](CCN(C)c2ccccc2)C1=O)c1ccccc1` [Compound 425, 3,4-dichloro-N-(((3S,5S)-3-(2-(methyl(phenyl)amino)ethyl)-2-oxo-1-((S)-2-phenylbutyl)-1,4-diazepan-5-yl)methyl)benzamide], the IC50 is less than 1000 nM.
In the case of `CC[C@H](CN1CC[C@@H](CNC(=O)c2ccc(Cl)c(Cl)c2)N[C@@H](CCN(CC)CC)C1=O)c1ccccc1` [Compound 426, 3,4-dichloro-N-(((3S,5S)-3-(2-(diethylamino)ethyl)-2-oxo-1-((S)-2-phenylbutyl)-1,4-diazepan-5-yl)methyl)benzamide] it was less than 100 nM; in that of `CC[C@H](CN1CC[C@@H](CNC(=O)c2ccc(Cl)c(Cl)c2)N[C@@H](CCN2CCOCC2)C1=O)c1ccccc1` [Compound 427, 3,4-dichloro-N-(((3S,5S)-3-(2-morpholinoethyl)-2-oxo-1-((S)-2-phenylbutyl)-1,4-diazepan-5-yl)methyl)benzamide], less than 100 nM; in that of `CC[C@H](CN1CC[C@@H](CNC(=O)c2ccc(Cl)c(Cl)c2)N[C@@H](CCNc2ccccc2)C1=O)c1ccccc1` [Compound 428, 3,4-dichloro-N-(((3S,5S)-2-oxo-3-(2-(phenylamino)ethyl)-1-((S)-2-phenylbutyl)-1,4-diazepan-5-yl)methyl)benzamide], less than 1000 nM.
For the molecule `CC[C@H](CN1CC[C@@H](CNC(=O)c2ccc(Cl)c(Cl)c2)N[C@@H](CCNCc2ccccc2)C1=O)c1ccccc1` [Compound 429, N-(((3S,5S)-3-(2-(benzylamino)ethyl)-2-oxo-1-((S)-2-phenylbutyl)-1,4-diazepan-5-yl)methyl)-3,4-dichlorobenzamide], the IC50 was less than 100 nM.
Then `CC[C@H](CN1CC[C@@H](CNC(=O)c2ccc(Cl)c(Cl)c2)N[C@@H](CCNC(C)(C)C)C1=O)c1ccccc1` [Compound 430, N-(((3S,5S)-3-(2-(tert-butylamino)ethyl)-2-oxo-1-((S)-2-phenylbutyl)-1,4-diazepan-5-yl)methyl)-3,4-dichlorobenzamide], with less than 100 nM.
Then `CC[C@H](CN1CC[C@@H](CNC(=O)c2ccc(Cl)c(Cl)c2)N[C@@H](CCN2CCN(C)CC2)C1=O)c1ccccc1` [Compound 431, 3,4-dichloro-N-(((3S,5S)-3-(2-(4-methylpiperazin-1-yl)ethyl)-2-oxo-1-((S)-2-phenylbutyl)-1,4-diazepan-5-yl)methyl)benzamide], with less than 100 nM; and `CCC[C@@H](CN1CC[C@@H](CNC(=O)c2ccc3ccccc3c2)N[C@@H](CCN2CCCCC2)C1=O)c1ccccc1` [Compound 432, N-(((3S,5S)-2-oxo-1-((R)-2-phenylpentyl)-3-(2-(piperidin-1-yl)ethyl)-1,4-diazepan-5-yl)methyl)-2-naphthamide], with less than 100 nM.
`CCC[C@H](CN1CC[C@@H](CNC(=O)c2ccc3ccccc3c2)N[C@@H](CCN2CCCCC2)C1=O)c1ccccc1` [Compound 433, N-(((3S,5S)-2-oxo-1-((S)-2-phenylpentyl)-3-(2-(piperidin-1-yl)ethyl)-1,4-diazepan-5-yl)methyl)-2-naphthamide]: the IC50 is less than 100 nM.
Consider `O=C(NC[C@@H]1CCN(CC(c2ccccc2)c2ccccc2)C(=O)[C@H](CCN2CCCCC2)N1)c1ccc(C(F)(F)F)cc1` [Compound 434, N-(((3S,5S)-1-(2,2-diphenylethyl)-2-oxo-3-(2-(piperidin-1-yl)ethyl)-1,4-diazepan-yl)methyl)-4-(trifluoromethyl)benzamide], for which the IC50 is less than 100 nM.
Regarding `NCC[C@@H]1N[C@H](CNC(=O)c2ccc(C(F)(F)F)cc2)CCN(CC(c2ccccc2)c2ccccc2)C1=O` [Compound 435, N-(((3S,5S)-3-(2-aminoethyl)-1-(2,2-diphenylethyl)-2-oxo-1,4-diazepan-5-yl)methyl)-4-(trifluoromethyl)benzamide], the IC50 is less than 10000 nM.
